Assay results as given in US11129835B2, “Methods and compositions for the inhibition of PIN1” (Beth Israel Deaconess Medical Center, Inc., priority 2012, dated 2021).

Assays:
[1] = molecular target: T1, Pin1 (Homo sapiens, UniProt Q13526); assay: Pin1 fluorescence polarization competition assay, primary qHTS (HiFluor-488 / Alexa488 probe);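 further: Pin1 protein with fluorescent peptide probe, compound displacement read by fluorescence polarization, percent inhibition derived from corrected polarization values, concentration-response curves in 1536-well format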
T1 sequence (Q13526 whole entry): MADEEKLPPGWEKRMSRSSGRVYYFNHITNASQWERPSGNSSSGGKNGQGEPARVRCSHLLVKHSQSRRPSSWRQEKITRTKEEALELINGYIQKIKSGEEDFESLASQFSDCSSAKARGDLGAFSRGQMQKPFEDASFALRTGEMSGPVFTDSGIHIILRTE
Description: (§1) The goal of this assay was to identify small-molecule inhibitors of Pin1 using a fluorescence polarization competition assay (FIG. 1). […] Candidate compounds were screened in a concentration-titration series (e.g., 57 μM to 0.7 nM).
(§2) Pin1 (0.6 μM) was dispensed into black, solid 1536-well plates (32 rows by 48 columns) at 2 μL/well in Pin1 buffer (10 mM HEPES (pH 7.5), 10 mM NaCl, 0.01% Tween20, 1 mM DTT, and 1% glycerol). Next, 23 nL of compound or DMSO was delivered to each well using a pin tool (tip wash sequence: DMSO, IPA, MeOH, 3 s vacuum dry). Two μL of Pin1-1b-HiFluor488 peptide in buffer (10 mM HEPES (pH 7.5), 10 mM NaCl, 0.01% Tween20, 1 mM DTT, and 1% glycerol, 0.02 μM Pin1-1b-HiFluor488) or DMSO was then dispensed to each well using a pin tool (tip wash sequence: DMSO, IPA, MeOH, 3 s vacuum dry), and plates were incubated at room temperature for 10 min (Table 2). Each plate included controls with no candidate inhibitory compound (32 wells), with unlabeled Pin1-1c titration (3.5 mM to 0.020 mM in a 1:2 dilution series including 2 replicates per concentration; 32 wells), and without Pin1 (64 wells).
(§3) The fluorescence polarization signal of each well was measured on a ViewLux® plate reader using a 480/20 nm excitation filter and 540/25 nm S and P emission filters with a 20 second exposure with 2× binning (Table 2). Percent inhibitory activity was determined from corrected fluorescence polarization values.
(§4) Concentration-response curves were fitted to the signals arising from the resulting fluorescence polarization. The concentration-effect curves were then classified based on curve quality (r^2), response magnitude, and degree of measured activity. Compounds were subsequently categorized based on their curve class.
Curves showing change polarized fluorescence may be categorized into 5 classes. Class 1 includes complete curves, having 2 asymptotes and an r^2 value of ≥0.9, with an efficacy of either >80% (class 1.1) or ≤80% (class 1.2). Class 1 curves may also be classified as noisy curves when efficacy is >80% and r^2<0.9 (class 1.3) or when efficacy is ≤80% and r^2<0.9 (class 1.4). Class 2 includes incomplete curves having 1 asymptote and an r^2 value of either >0.9 (subclass a) or <0.9 (subclass b), with an efficacy of either >80% (class 2.1) or ≤80% (class 2.2). Class 2 curves may also be classified as noisy curves when efficacy is >80% and r^2<0.9 (class 2.3) or when efficacy is ≤80% and r^2<0.9 (class 2.4). Class 3 includes single point activity curves having 1 asymptote and an efficacy >3 SD from the mean activity of the sample field at the highest tested concentration. […] A fifth class captures any curves not otherwise classified (FIG. 4).

[2] = molecular target: T1, Pin1; assay: Pin1 fluorescence polarization competition assay with Tamra-probe (secondary); conditions: for Emax: read-out: Tamra Secondary Efficacy
Description: An assay was developed for the identification of inhibitors of Pin1. […] Candidate compounds were screened in a concentration-titration series (e.g., 57 μM to 0.7 nM).
as §2, §3, §4
A further secondary assessment was accomplished by replacing the HiFluor-488-labeled probe with Tamra-probe, a red-shifted fluorophore.

[3] = molecular target: T1, Pin1; assay: confirmatory Pin1 fluorescence polarization competition assay (Alexa488 reconfirmed); conditions: for Emax: read-out: Alexa488 Reconfirmed Efficacy;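 on all read-outs here: Pin1 competition with a HiFluor488-labelled peptide probe, read as fluorescence polarization after 10 min at room temperature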
Description: as §1, §2, §3, §4

[4] = Alexa488 Primary Potency, primary qHTS
[5] = Average HTS Potency, average over Alexa488 primary, Alexa488 reconfirmed and Tamra secondary assays
[6] = read-out: Alexa488 Primary Efficacy

Row | Compound | IC50 [1, 4] | IC50 [1, 5] | Alexa488 Primary Curve Class ([1]; primary qHTS) | Emax [1, 6] | Emax ([1]; read-out: Average HTS Efficacy) | IC50 [2] | Tamra Secondary Curve Class ([2]; Tamra-probe) | Emax [2] | IC50 [3] | Alexa488 Reconfirmed Curve Class ([3]; confirmatory retest) | Emax [3] | Average HTS Efficacy ([1]; average over Alexa488 primary, Alexa488 reconfirmed and Tamra secondary assays) | Alexa488 Primary Efficacy ([1]; primary qHTS) | Tamra Secondary Efficacy ([2]; Tamra-probe) | Alexa488 Reconfirmed Efficacy ([3]; confirmatory retest)
1 | C=CCOc1ccc(C(c2c(C(=O)O)[nH]c3ccccc23)c2c(C(=O)O)[nH]c3ccccc23)cc1 [Compound 46] | 43 µM | 30 µM | 2.2 (≤80% (class 2.2)) | 82% | 81% | 21 µM | 2.2 (≤80% (class 2.2)) | 78% | 27 µM | 2.2 (≤80% (class 2.2)) | 84% |  |  |  | 
2 | Cc1ccc(C)c2c1NC(C(=O)O)C1CC=CC21 (stereo not drawn) [Compound 7] | 45 µM | 29 µM | 1.2 (≤80% (class 1.2)) | 63% | 72% | 14 µM | 2.2 (≤80% (class 2.2)) | 63% |  | 2.2 (≤80% (class 2.2)) | 91% |  |  |  | 
3 | Cc1cc(C(=O)NCc2ccc(C(=O)O)o2)c(C)o1 [Compound 33] | 48 µM | 21 µM | 1.2 (≤80% (class 1.2)) | 20% | 58% | 10 µM | 2.2 (≤80% (class 2.2)) | 70% | 7 µM | 2.2 (≤80% (class 2.2)) | 84% |  |  |  | 
4 | COc1ccc(C(=O)c2no[n+]([O-])c2C(=O)c2ccc(OC)cc2)cc1 [Compound 32] | 38 µM | 13 µM | 1.2 (≤80% (class 1.2)) | 21% | 61% | 0.19 µM |  | 81% | 0.24 µM |  | 82% |  |  |  | 
5 | O=C(O)c1[nH]c2ccccc2c1C(c1cc(Cl)cc([N+](=O)[O-])c1O)c1c(C(=O)O)[nH]c2ccccc12 [Compound 44] | 36 µM | 24 µM | 2.2 (≤80% (class 2.2)) | 90% | 79% | 24 µM | 2.2 (≤80% (class 2.2)) | 83% | 12 µM | 2.2 (≤80% (class 2.2)) | 63% |  |  |  | 
6 | CCCCCC(=O)Nc1cc(S(=O)(=O)O)cc2cc(S(=O)(=O)O)cc(O)c12 [Compound 16] | 76 µM | 27 µM |  | 54% | 77% | 2 µM |  | 84% | 2 µM |  | 93% |  |  |  | 
7 | O=C(O)Cc1c[nH]c2cccc(O)c12 [Compound 23] | 76 µM | 33 µM |  | 63% | 77% | 8 µM | 2.2 (≤80% (class 2.2)) | 77% | 15 µM |  | 92% |  |  |  | 
8 | O=S(=O)(Nc1nc(-c2sccc2Cl)cs1)c1cc(Cl)ccc1Cl [Compound 24] | 43 µM | 23 µM | 1.2 (≤80% (class 1.2)) | 76% | 92% | 12 µM |  | 100% | 14 µM | 1.2 (≤80% (class 1.2)) | 101% |  |  |  | 
9 | O=C(O)CCCNC(=O)/C=C/c1ccco1 [Compound 19] | 38 µM | 15 µM | 1.2 (≤80% (class 1.2)) | 41% | 64% | 5 µM | 2.2 (≤80% (class 2.2)) | 78% | 2 µM | 1.2 (≤80% (class 1.2)) | 73% |  |  |  | 
10 | O=C(NC(Cc1ccccc1)C(=O)O)/C(=C\c1ccco1)NC(=O)c1ccccc1 (stereo not drawn) [Compound 35] | 38 µM | 19 µM |  | 26% | 71% | 11 µM | 2.2 (≤80% (class 2.2)) | 75% | 9 µM |  | 112% |  |  |  | 
11 | COc1cc(C(c2c(C(=O)O)[nH]c3ccccc23)c2c(C(=O)O)[nH]c3ccccc23)ccc1OCc1ccccc1 [Compound 47] | 79 µM | 40 µM | 1.2 (≤80% (class 1.2)) | 26% | 67% | 21 µM |  | 91% | 19 µM | 2.2 (≤80% (class 2.2)) | 84% |  |  |  | 
12 | O=C(O)c1cccc2c1NC(C(=O)O)C1CC(Sc3ccccc3[N+](=O)[O-])C(Cl)C21 (stereo not drawn) [Compound 3] |  |  |  |  |  |  | 1.2 (≤80% (class 1.2)) |  |  | 1.2 (≤80% (class 1.2)) |  | 71 % Inh. | 80 % Inh. | 72 % Inh. | 61 % Inh.
13 | Cc1ccc(C)n1-c1sccc1C(=O)O [Compound 18] | 68 µM | 24 µM |  | 44% | 77% | 2 µM |  | 95% | 2 µM |  | 91% |  |  |  | 
14 | CC(C)COc1ccc(C(=O)N/C(=C\c2cccc([N+](=O)[O-])c2)C(=O)O)cc1 [Compound 37] | 85 µM | 37 µM | 1.2 (≤80% (class 1.2)) | 19% | 47% | 12 µM | 2.2 (≤80% (class 2.2)) | 58% | 15 µM | 2.2 (≤80% (class 2.2)) | 63% |  |  |  | 

Second part, led by results:

Row | IC50 [1, 4] | IC50 [1, 5] | Alexa488 Primary Curve Class ([1]; primary qHTS) | Emax [1, 6] | Emax ([1]; read-out: Average HTS Efficacy) | IC50 [2] | Tamra Secondary Curve Class ([2]; Tamra-probe) | Emax [2] | IC50 [3] | Alexa488 Reconfirmed Curve Class ([3]; confirmatory retest) | Emax [3] | Compound | Average HTS Efficacy ([1]; average over Alexa488 primary, Alexa488 reconfirmed and Tamra secondary assays) | Alexa488 Primary Efficacy ([1]; primary qHTS) | Tamra Secondary Efficacy ([2]; Tamra-probe) | Alexa488 Reconfirmed Efficacy ([3]; confirmatory retest)
15 | 6 µM | 3 µM | 1.2 (≤80% (class 1.2)) | 66% | 84% | 1.2 µM |  | 95% | 1.3 µM |  | 90% | CC(=O)c1ccc2c(c1)C1C=CCC1C(C(=O)O)N2 (stereo not drawn) [Compound 1] |  |  |  | 
16 | 18 µM | 7 µM | 1.2 (≤80% (class 1.2)) | 53% | 63% | 2 µM | 1.2 (≤80% (class 1.2)) | 61% | 2 µM | 1.2 (≤80% (class 1.2)) | 75% | O=C(O)C1Nc2c(Cl)cc(Cl)c(Cl)c2C2C=CCC12 (stereo not drawn) [Compound 5] |  |  |  | 
17 | 10 µM | 11 µM | 2.2 (≤80% (class 2.2)) | 27% | 133% | 12 µM |  | 300% | 11 µM | 2.2 (≤80% (class 2.2)) | 71% | O=S(=O)(O)c1cc(O)c2cc(Nc3ccccc3)ccc2c1 [Compound 15] |  |  |  | 
18 | 15 µM | 11 µM | 1.2 (≤80% (class 1.2)) | 58% | 62% | 8 µM | 2.2 (≤80% (class 2.2)) | 72% | 11 µM | 2.2 (≤80% (class 2.2)) | 56% | Cc1oc(-c2ccc3c(c2)OCCO3)cc1C(=O)NC(Cc1ccccc1)C(=O)O (stereo not drawn) [Compound 21] |  |  |  | 
19 | 22 µM | 14 µM |  | 42% | 72% | 11 µM |  | 87% | 10 µM |  | 85% | O=C(O)C1Nc2ccc(Br)cc2C2C=CCC12 (stereo not drawn) [Compound 6] |  |  |  | 
20 | 7 µM | 4 µM |  | 86% | 81% | 3 µM | 1.2 (≤80% (class 1.2)) | 69% | 2 µM |  | 89% | O=C(O)C1Nc2c(O)cc(Cl)c([N+](=O)[O-])c2C2C=CCC12 (stereo not drawn) [Compound 2] |  |  |  | 
21 | 3 µM | 1.16 µM | 1.2 (≤80% (class 1.2)) | 69% | 79% | 0.43 µM |  | 80% | 0.34 µM |  | 89% | Cc1c(C(=O)c2no[n+]([O-])c2C(=O)c2cnn(C)c2C)cnn1C [Compound 30] |  |  |  | 
22 | 23 µM | 27 µM |  | 85% | 108% | 27 µM |  | 126% |  |  | 112% | COc1ccc(S(=O)(=O)N2CCN(C(=O)c3cc4c(s3)CCC4)CC2)cc1 [Compound 27] |  |  |  | 
23 | 10 µM | 5 µM |  | 64% | 79% | 3 µM |  | 89% | 2 µM |  | 83% | Cc1ccc(C)n1-c1cccc(C(=O)O)c1 [Compound 17] |  |  |  | 
24 | 10 µM | 4 µM |  | 78% | 95% | 1.2 µM |  | 97% | 2 µM |  | 111% | Cc1ccc(N(Cc2cc(=O)[nH]c3ccccc23)C(=O)CCl)cc1 [Compound 9] |  |  |  | 
25 | 11 µM | 15 µM |  | 101% | 80% | 19 µM | 2.2 (≤80% (class 2.2)) | 76% | 14 µM | 2.2 (≤80% (class 2.2)) | 62% | CCCCOc1ccc(C(=O)N/C(=C/c2cccc([N+](=O)[O-])c2)C(=O)O)cc1 [Compound 36] |  |  |  | 
26 | 15 µM | 6 µM | 1.2 (≤80% (class 1.2)) | 78% | 88% | 1.1 µM |  | 92% | 1.2 µM |  | 93% | O=C1OC(/C(=C\Nc2cc(Cl)ccc2O)[N+](=O)[O-])c2ccccc21 (stereo not drawn) [Compound 12] |  |  |  | 
